In patent US11612652B2, “Lipids as synthetic vectors to enhance antigen processing and presentation ex-vivo in dendritic cell therapy” (PDS Biotechnology Corporation, priority 2015, dated 2023):

How the values were obtained:
[1] = system: mouse bone marrow derived dendritic cells (BMDCs); assay: Alexa Fluor 647-OVA uptake by BMDCs, flow cytometry; format: cell-based; details: 50 μM cationic lipid, 20 μg/ml Alexa Fluor 647-OVA, 37° C., 10-60 minutes, versus 280 mM sucrose diluent
Description: In order to determine the effect of cationic lipids on the uptake of protein antigen, mouse bone marrow derived dendritic cells (BMDCs) were pulsed with Alexa Fluor®647-OVA conjugate and quantified ovalbumin uptake by BMDCs using flow cytometry. Briefly, 2×10^6 cells/ml BMDCs were incubated at 37° C. for 10-60 minutes in serum free RPMI 1640 cell culture media containing 20 μg/ml ovalbumin (Ovalbumin Alexa Fluor® 647 conjugate; life technologies, cat #034784) and 50 μM cationic lipid (RDOTAP) or 280 mM sucrose diluent. Cells were washed after pulsing to remove non-cell associated ovalbumin and fixed with 1% formaldehyde for flow cytometer analysis. The ovalbumin uptake was quantified using BD LSR II flow cytometer.

[2] = system: BMDC (CD11c positive cells); assay: DQ-OVA uptake and processing by BMDC, flow cytometry; format: cell-based, mouse
Description: In order to determine the effects of cationic lipids on antigen uptake and processing by dendritic cells ex-vivo, a fluorescent ovalbumin protein called DQ-OVA was used. DQ-OVA is non-fluorescent when intact, but emits both red and green fluorescence when the protein is degraded. BMDC were incubated at 37° C. or 4° C. for 1 hr with DQ-OVA alone, or DQ-OVA mixed with different concentrations of the cationic lipid DOTAP. The cells were then washed, fixed, and stained with fluorescent antibodies to CD11c, a marker for dendritic cells. Cells were then analyzed on an LSRII flow cytometer in both red and green fluorescent channels.
This represents the well-known mannose receptor mediated uptake of OVA by DC. […] Graphical representation of the fluorescent uptake of DQ-OVA into BMDC measured by flow cytometry.
(§1) This uptake and processing was inhibited at 4° C. confirming that active cytoskeletal rearrangements are required for this type of uptake. […] The effect of R-DOTAP was concentration dependent with 50 uM showing the greatest effect. To determine if the R-DOTAP enhancement of protein uptake is cell dependent, a mouse epithelial cell line was incubated with DQ-OVA under identical conditions as the BMDC. […] Further, they indicate that this enhancement is selective for dendritic cells and not other, non-antigen presenting cell types.
In order to determine whether lipid adjuvants could mediate the same effect as R-DOTAP, BMDC were incubated with DQ-OVA in media alone or with R-DOTAP as described for FIG. 1. In addition, BMDC were incubated under identical conditions with the potent lipid adjuvant lipopolysaccharide (LPS). Mouse bone marrow DC were incubated in the presence of fluorescent DQ-OVA for one hour at either 37° C. or 4° C./azide in the presence of 25 μM DOTAP nanoparticles, 10 μg/ml LPS or media alone, and analyzed by flow cytometry. […] Monophorphoryl lipid-A (MPL) is a lower toxicity derivative of LPS that is now an FDA approved adjuvant in several vaccines.

[3] = system: TC1 epithelial cells; assay: DQ-OVA uptake and processing by epithelial cell line; format: cell-based, mouse; details: identical conditions as the BMDC
Description: as §1

[4] = system: HPV16-specific CD8+ T-cells; assay: IFN-gamma ELISPOT of splenocytes after vaccination with KF18 HPV peptide formulations; format: in vivo, C57 black mice; details: vaccinated Day 0 and Day 7, sacrificed Day 14
Description: C57 black mice were vaccinated with various formulations: […]
Group 1: KF18 HPV peptide ([…]) (SEQ ID NO: 4)
Group 2: KF18 HPV peptide+R-DOTAP liposomes
Group 3: KF18 HPV peptide+S-DOTAP liposomes
Group 4: KF18 peptide+MPL/Alum adjuvant
5 mice per group were injected with the various formulations. The mice were vaccinated on Day 0 and Day 7 and sacrificed on Day 14. The splenocytes were removed and ELISPOT studies performed. The splenocytes were stimulated with the peptide […] (RF9) (SEQ ID NO: 5), the HPV16 CD8+ T-cell epitope peptide recognized by the C57 mice. […] An additional example of this effect is observed with the cationic lipid DDA. […] However, it has been reported that in order to induce strong antigen-specific T-cell responses that DDA is used in combination with strong adjuvants (Brandt L. et al, ESAT-6 Subunit Vaccination against Mycobacterium tuberculosis, Infect Immun. 2000 February; 68(2): 791-795).

[5] = system: popliteal LN; assay: Homing of CFSE labeled adoptively transferred spleen cells with or without pertussis toxin; format: in vivo, B6 mice; details: 16 h
Description: The primary objective of the current experiment was to utilize 5 mice to perform the study described in Example 7 and to visualize the homing of CFSE labeled adoptively transferred cells. The study included a population of cells that had been treated in vitro with pertussis toxin to inactivate chemokine receptors. Pertussis toxin and untreated cells were labeled with two different concentrations of CFSE so that they could be distinguished by flow cytometry. The lymphocytes should be induced to home to lymph nodes.
Spleen cells were prepared from a single B6 mouse and divided in half. Half of the cells were treated with Pertussis toxin 100 ng/ml for 1 hour at 37° C. and washed. The two cell populations were then labeled with CFSE at two different concentrations so they could be distinguished by flow cytometry, and mixed together. The mix (10^7 cells) was injected i.v. into the tail vein of 5 B6 mice. The mice were then anesthetized and injected in the footpad with either sucrose (right footpad) or R-DOTAP (left footpad, 50 μl, 600 nmoles).
After 16 h, the mice were sacrificed and the popliteal LN and spleens harvested. The total cells recovered from left and right nodes from each mouse were counted.

CCCCCCCC/C=C\CCCCCCCC(=O)OCC(C[N+](C)(C)C)OC(=O)CCCCCCC/C=C\CCCCCCCC (stereo not drawn) [R-DOTAP, 1,2-dioleoyl-3-trimethylammonium propane]
ovalbumin (protein) uptake by BMDC, fluorescence intensity [1]: significantly increased the protein uptake by BMDC at all time points measured | DQ-OVA uptake at 4° C. ([2]; 4° C., 1 hr): Significant uptake was even seen at 4 °C | DQ-OVA uptake and processing, mean green fluorescence of CD11c positive cells ([2]; 37° C., 1 hr, versus DQ-OVA alone): doubling of fluorescence | concentration showing the greatest effect on DQ-OVA uptake ([2]; concentration dependent effect): 50 µM | enhancement of DQ-OVA uptake and processing compared with known adjuvants (red fluorescence) ([2]; one hour, 25 μM DOTAP nanoparticles, 10 μg/ml LPS or media alone): greatly enhanced | DQ-OVA uptake and processing in TC1 epithelial cells [3]: only observed in DC and not in TC1 epithelial cells | HPV-specific CD8+ T-cell response (ELISPOT, RF9 stimulation) [4]: effective in inducing strong HPV-specific CD8+ T-cell responses | infiltration of transferred CFSE labeled lymphocytes into lymph node ([5]; R-DOTAP footpad 50 μl, 600 nmoles, untreated cells): transferred CFSE labeled lymphocytes also infiltrated the lymph node upon R-DOTAP vaccination | infiltration of pertussis toxin treated CFSE labeled cells into lymph node ([5]; cells treated with Pertussis toxin 100 ng/ml): this did not occur with the pertussis treated cells
